Reference: ChEMBL document CHEMBL1201862, “PubChem BioAssay data set” (2004)
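Step 1: Grow cells in 96-well plates. Step 2: Expose to compound for 48 hours at 5 concentrations. Step 3: Interpolate endpoints linearly; if unreached, use highest concentration. GI50 = concentration required for 50% inhibition of growth.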 Calls of active or inactive are those of the source. Rule as the data show it: active = GI50 up to about 1.1 µM and inactive = higher.

Key:
Assay in all cases: NCI tumour cell line growth inhibition, 48 h
[1] = system: BT-549
[2] = system: SK-MEL-2
[3] = system: DU-145
[4] = system: OVCAR-5
[5] = system: A549
[6] = system: NCI/ADR-RES
[7] = system: HOP-62
[8] = system: CAKI-1
[9] = system: MDA-N
[10] = system: NCI-H460
[11] = system: MCF7
[12] = system: MDA-MB-435
[13] = system: HT-29
[14] = system: SK-OV-3
[15] = system: UACC-62
[16] = system: IGROV-1
[17] = system: CCRF-CEM
[18] = system: NCI-H226
[19] = system: SNB-19
[20] = system: KM12

SMILES	GI50 [1]	GI50 [2]	GI50 [3]	GI50 [4]	GI50 [5]	GI50 [6]	GI50 [7]	GI50 [8]	GI50 [9]	GI50 [10]	GI50 [11]	GI50 [12]	GI50 [13]	GI50 [14]	GI50 [15]	GI50 [16]	GI50 [17]	GI50 [18]	GI50 [19]	GI50 [20]
Cc1cc2nnn(C3CCCO3)c2cc1C (stereo not drawn)	> 100 µM (inactive)	> 100 µM (inactive)	> 100 µM (inactive)	> 100 µM (inactive)	> 100 µM (inactive)	> 100 µM (inactive)	> 100 µM (inactive)	> 100 µM (inactive)	> 100 µM (inactive)	> 100 µM (inactive)	> 100 µM (inactive)	> 100 µM (inactive)	> 100 µM (inactive)	> 100 µM (inactive)	> 100 µM (inactive)	> 100 µM (inactive)	> 100 µM (inactive)	> 100 µM (inactive)		
CC(=N/NC(=S)N1CCCCC1)/C(=N\NC(=S)N1CCCCC1)c1ccccc1	1.91 µM (inactive)	2.11 µM (inactive)	0.512 µM (active)	2 µM (inactive)	2.03 µM (inactive)	2.65 µM (inactive)	2.04 µM (inactive)	2.04 µM (inactive)	2.61 µM (inactive)	1.91 µM (inactive)	2.75 µM (inactive)	2.08 µM (inactive)	2.1 µM (inactive)	1.95 µM (inactive)	1.77 µM (inactive)	1.72 µM (inactive)		1.91 µM (inactive)	1.87 µM (inactive)	1.97 µM (inactive)
O=c1c2c(oc3ccccc13)-c1ccccc1OC2	> 100 µM (inactive)	> 100 µM (inactive)	53.3 µM (inactive)	> 100 µM (inactive)	96.6 µM (inactive)	29.3 µM (inactive)	88.9 µM (inactive)	26.1 µM (inactive)	> 100 µM (inactive)		> 100 µM (inactive)	> 100 µM (inactive)	> 100 µM (inactive)	20.2 µM (inactive)	> 100 µM (inactive)	36.7 µM (inactive)	> 100 µM (inactive)	> 100 µM (inactive)		> 100 µM (inactive)
Cc1nn(C(=O)Cc2ccccc2)c2c1C(c1ccc(O)cc1O)SC(=N)N2 (stereo not drawn)	> 100 µM (inactive)		> 100 µM (inactive)		> 100 µM (inactive)		> 100 µM (inactive)	> 100 µM (inactive)	> 100 µM (inactive)	> 100 µM (inactive)	> 100 µM (inactive)	> 100 µM (inactive)	> 100 µM (inactive)	> 100 µM (inactive)	> 100 µM (inactive)	> 100 µM (inactive)	> 100 µM (inactive)	> 100 µM (inactive)	> 100 µM (inactive)	> 100 µM (inactive)
O=C(O[C@@H](/C=C/c1ccccc1)P1(=O)N(Cc2ccccc2)[C@@H]2CCCC[C@H]2N1Cc1ccccc1)c1ccccc1	4.91 µM (inactive)	2.38 µM (inactive)		4.86 µM (inactive)	3.07 µM (inactive)	3.66 µM (inactive)	6.79 µM (inactive)	1.48 µM (inactive)	3.33 µM (inactive)	3.53 µM (inactive)	3.59 µM (inactive)	3.12 µM (inactive)	3.44 µM (inactive)	5.92 µM (inactive)	3.8 µM (inactive)	2.79 µM (inactive)	2.31 µM (inactive)	2.58 µM (inactive)	4.54 µM (inactive)	2.83 µM (inactive)
CCc1nc2c(n1CC)C(=O)c1ccccc1C2=O	17.2 µM (inactive)		66.5 µM (inactive)	47.2 µM (inactive)	43.2 µM (inactive)	31.2 µM (inactive)	42.5 µM (inactive)		> 10 µM (inactive)	39.1 µM (inactive)	49.1 µM (inactive)	18.3 µM (inactive)	24.9 µM (inactive)		28.8 µM (inactive)	24.5 µM (inactive)	45.7 µM (inactive)	28.6 µM (inactive)	45.6 µM (inactive)	45.3 µM (inactive)
Cc1cccc(-c2nc3ccc([N+](=O)[O-])cc3c(=O)o2)c1	51.4 µM (inactive)	91.2 µM (inactive)	59.8 µM (inactive)	> 100 µM (inactive)	73.3 µM (inactive)	26.1 µM (inactive)	46.1 µM (inactive)	> 100 µM (inactive)	> 100 µM (inactive)	51.8 µM (inactive)	62.5 µM (inactive)	89.7 µM (inactive)	62.4 µM (inactive)	> 100 µM (inactive)	21.1 µM (inactive)	> 100 µM (inactive)	27.8 µM (inactive)	71.6 µM (inactive)		90.6 µM (inactive)
CC1CC2(OC2C)C(=O)OC2CCN(C)C/C=C(/COC(=O)C1(C)O)C2=O (stereo not drawn)	> 100 µM (inactive)	> 100 µM (inactive)	> 100 µM (inactive)	> 100 µM (inactive)	> 100 µM (inactive)	> 100 µM (inactive)	> 100 µM (inactive)	> 100 µM (inactive)	> 100 µM (inactive)	> 100 µM (inactive)	> 100 µM (inactive)	> 100 µM (inactive)	> 100 µM (inactive)	> 100 µM (inactive)	> 100 µM (inactive)	> 100 µM (inactive)	> 100 µM (inactive)		> 100 µM (inactive)	> 100 µM (inactive)
O=C1O[C@H]2C3C4CCC(C4[C@@H]2I)[C@H]13 (stereo partly drawn)	> 100 µM (inactive)	> 100 µM (inactive)	> 100 µM (inactive)	> 100 µM (inactive)	> 100 µM (inactive)	> 100 µM (inactive)	> 100 µM (inactive)	> 100 µM (inactive)	> 100 µM (inactive)	> 100 µM (inactive)	> 100 µM (inactive)	> 100 µM (inactive)	> 100 µM (inactive)		> 100 µM (inactive)	> 100 µM (inactive)	> 100 µM (inactive)	> 100 µM (inactive)	> 100 µM (inactive)	> 100 µM (inactive)
CCOc1cc(C2SCC(=O)N2c2ccc3c(c2)Oc2c(Cl)c4c(c(Cl)c2=N3)Oc2cc(N3C(=O)CSC3c3ccc(O)c(OCC)c3)ccc2N=4)ccc1O (stereo not drawn)	21.7 µM (inactive)	27.5 µM (inactive)	29.9 µM (inactive)	> 100 µM (inactive)	23.8 µM (inactive)	39 µM (inactive)	31.6 µM (inactive)	> 100 µM (inactive)	34.8 µM (inactive)	30.6 µM (inactive)	33.3 µM (inactive)	35.1 µM (inactive)	39.8 µM (inactive)			41.9 µM (inactive)		25.9 µM (inactive)		40.9 µM (inactive)
O=C1CC(=O)NC(NN2C(=O)CSC2c2ccccc2)=N1 (stereo not drawn)	> 100 µM (inactive)	> 100 µM (inactive)	> 100 µM (inactive)	> 100 µM (inactive)	> 100 µM (inactive)	> 100 µM (inactive)	> 100 µM (inactive)	> 100 µM (inactive)	> 100 µM (inactive)	> 100 µM (inactive)	> 100 µM (inactive)	> 100 µM (inactive)	> 100 µM (inactive)	> 100 µM (inactive)	> 100 µM (inactive)	> 100 µM (inactive)	> 100 µM (inactive)	> 100 µM (inactive)		> 100 µM (inactive)
NS(=O)(=O)c1cc2c(cc1Cl)N=C(CCC(=O)O)NS2(=O)=O	> 100 µM (inactive)	> 100 µM (inactive)	> 100 µM (inactive)	> 100 µM (inactive)	> 100 µM (inactive)	> 100 µM (inactive)	> 100 µM (inactive)	> 100 µM (inactive)	> 100 µM (inactive)	> 100 µM (inactive)	> 100 µM (inactive)	> 100 µM (inactive)	> 100 µM (inactive)	> 100 µM (inactive)	> 100 µM (inactive)	> 100 µM (inactive)		> 100 µM (inactive)	> 100 µM (inactive)	> 100 µM (inactive)
COCC1OC(N2C(=O)NC(=O)[C@@H]3C=C4CCCCC4=C[C@@H]32)C(OC)C1OC (stereo partly drawn)	> 100 µM (inactive)	> 100 µM (inactive)	> 100 µM (inactive)	> 100 µM (inactive)	> 100 µM (inactive)	> 100 µM (inactive)	> 100 µM (inactive)		> 100 µM (inactive)	> 100 µM (inactive)	> 100 µM (inactive)	> 100 µM (inactive)	> 100 µM (inactive)	> 100 µM (inactive)	> 100 µM (inactive)	> 100 µM (inactive)		> 100 µM (inactive)	> 100 µM (inactive)	> 100 µM (inactive)
Cc1cc2ccccc2c[n+]1CC(O)C[n+]1cc2ccccc2cc1C	> 100 µM (inactive)	> 100 µM (inactive)	> 100 µM (inactive)	> 100 µM (inactive)	> 100 µM (inactive)	> 100 µM (inactive)	82.6 µM (inactive)	> 100 µM (inactive)	> 100 µM (inactive)	> 100 µM (inactive)	> 100 µM (inactive)	> 100 µM (inactive)	> 100 µM (inactive)		> 100 µM (inactive)	> 100 µM (inactive)		> 100 µM (inactive)	> 100 µM (inactive)	> 100 µM (inactive)
O=c1cc(O)c2ccccc2o1 [4-HYDROXYCOUMARINS]	> 100 µM (inactive)		> 100 µM (inactive)	> 100 µM (inactive)	> 100 µM (inactive)	> 100 µM (inactive)	> 100 µM (inactive)	> 100 µM (inactive)	> 100 µM (inactive)	> 100 µM (inactive)	> 100 µM (inactive)	> 100 µM (inactive)	> 100 µM (inactive)		> 100 µM (inactive)	> 100 µM (inactive)	> 100 µM (inactive)	> 100 µM (inactive)	> 100 µM (inactive)	> 100 µM (inactive)
